Data on 43 compounds can be found in the Deep4Chem optical property database.

This series is described as follows: solvent given as SMILES.
Where [1] appears, read: in N#Cc1ccc2c(c1)c1ccccc1n2-c1cccc(-n2c3ccccc3c3ccccc32)c1.
[2] abbreviates: in O=P(c1ccccc1)(c1ccccc1)c1ccccc1Oc1ccccc1P(=O)(c1ccccc1)c1ccccc1.

“And” between values parts separate entries of the source, which are not always exact repeats. Identical values can stand only once.

Regarding `c1ccc(-c2cc(-c3ccc4ccc5c(-c6ccnc(-c7ccccn7)c6)ccc6ccc3c4c65)ccn2)nc1`, the fluorescence lifetime (in C1CCOC1) worked out at 2 ns; the fluorescence lifetime (in CC#N) worked out at 2.2 ns; the fluorescence lifetime (in CCC#N) stood at 2.2 ns; the fluorescence lifetime (in CCCC#N) was found to be 2.1 ns; the fluorescence lifetime (in CCCCCC) was 2.6 ns; the fluorescence lifetime (in CCCO) turned out to be 2.1 ns. Also, the fluorescence lifetime came out at 2.1 ns (in CCO), 1.7 ns (in CO) and 1.8 ns (in Cc1ccccc1).

`CC1(C)Nc2cc(Cl)ccc2-c2[nH]c3ccccc3c(=O)c21`: the fluorescence lifetime reads like this: (in C1CCOC1) 7.47 ns; (in CC#N) 8.72 ns; (in CCCCO) 9.26 ns; (in CCCO) 9.2 ns; (in CCO) 9 ns; (in CCOC(C)=O) 7.52 ns. In addition, the fluorescence lifetime came to 9.36 ns (in CN(C)C=O); 8.67 ns (in CO); 9.91 ns (in CS(C)=O); 6.68 ns (in Cc1ccccc1); 4.8 ns (in ClC(Cl)(Cl)Cl); 8.06 ns (in ClCCl). For the same compound, the fluorescence lifetime runs as follows: (in O) 8.68 ns; (in c1ccccc1) 6.71 ns.

For `O=P1(c2ccccc2)c2ccc(N3c4ccccc4Sc4ccccc43)cc2-c2cc(N3c4ccccc4Sc4ccccc43)ccc21`, the fluorescence lifetime (in c1ccc2c(c1)c1ccccc1n2-c1ccc(-c2ccc(-n3c4ccccc4c4ccccc43)cc2)cc1) came to 26 ns.

`CCN(CC)c1ccc2cc(-c3nc4ccccc4s3)c(=O)oc2c1`: the fluorescence lifetime by setting is: (in C1CCCCC1) 2.38 ns; (in CC1CCCCC1) 2.32 ns; (in CC#N) 3.2 ns and 2.55 ns; (in CCC(C)CC) 2.38 ns; (in CCCCCC) 2.37 ns; (in CCO) 2.5 ns. The compound further returned a fluorescence lifetime (in CCOC(C)=O) of 2.46 ns.

Turning to `CCC1(CC)c2ccccc2-c2c1c1c(c3c2C(CC)(CC)c2cc(N(c4ccccc4)c4ccccc4)ccc2-3)C(CC)(CC)c2cc(N(c3ccccc3)c3ccccc3)ccc2-1`, the fluorescence lifetime (in C1CCOC1) came out at 1.9 ns.

For the compound `COC(=O)C(NC(=O)OC(C)(C)C)c1ccc2oc(-c3ccc(OC(=O)c4ccccc4)cc3OC(=O)c3ccccc3)nc2c1` (stereo unspecified), the fluorescence lifetime turned out to be 0.358 ns (in CC1CCCCC1), 0.003 ns (in CC#N) and 0.01 ns (in CO).

`Cc1ccc(C2=C3C=C(I)C=[N+]3[B-](F)(F)n3cc(I)cc32)cc1`: the fluorescence lifetime runs as follows: (in C1CCCCC1) 0.117 ns; (in CC#N) 0.057 ns; (in CCO) 0.065 ns; (in CCOC(C)=O) 0.069 ns; (in CO) 0.057 ns; (in OCC(F)(F)F) 0.072 ns.

Take `COc1cc(/C=C/C(=O)CC(=O)/C=C/c2ccc(O)c(OC)c2)ccc1O`: the fluorescence lifetime turned out to be 0.064 ns (in C1CCCCC1); 0.376 ns (in CC#N); 0.194 ns (in CN(C)C=O); 0.148 ns (in CO); 0.196 ns (in CS(C)=O); 0.201 ns (in c1ccccc1).

Regarding `Cc1cc(N(C)C)cc(C)c1/C=C/C=C/c1ccc(C#N)cc1`, the fluorescence lifetime is 0.51 ns (in C1CCOC1); 0.61 ns (in CC#N); 0.29 ns (in CCCCCC); 0.38 ns (in CCCCOCCCC); 0.58 ns (in CCO); 0.49 ns (in CCOCC).

For the setting “in CN(C)C=O”, `O=C([O-])c1ccc(C(=O)[O-])c2cc3ccccc3cc12` displayed a fluorescence lifetime of 1 ns.

In turn, `Oc1cc2ccc3cc(O)cc4ccc(c1)c2c34` gave a fluorescence lifetime (in CO) of 29 ns.

For the compound `Cc1cccc2ccccc12`, the fluorescence lifetime (in C1CCCCC1) came out at 140 ns.

`CC(C)[Si](C#Cc1ccc(C#C[Si](C(C)C)(C(C)C)C(C)C)c2nc3ccccc3nc12)(C(C)C)C(C)C` returned a fluorescence lifetime (in ClCCl) of 0.37 ns.

Where the note is “in Cc1ccccc1”, `CC(C)(C)c1ccc2c(c1)c1cc(C(C)(C)C)ccc1n2-c1cccc2c1Oc1c(-c3nc(-c4ccccc4)nc(-c4ccccc4)n3)cccc1C2(C)C` displayed a fluorescence lifetime of 4 ns.

`CCC1(CC)c2ccccc2-c2c1c1c(c3c2C(CC)(CC)c2cc(B(c4c(C)cc(C)cc4C)c4c(C)cc(C)cc4C)ccc2-3)C(CC)(CC)c2cc(B(c3c(C)cc(C)cc3C)c3c(C)cc(C)cc3C)ccc2-1`: the fluorescence lifetime (in C1CCOC1) was 4.2 ns.

On to `COc1ccc(-c2c3ccccc3c(C#Cc3ccccc3)c3cc4ccccc4cc23)cc1`, for which, under “in ClCCl”, the fluorescence lifetime came to 9.7 ns.

On to `N#Cc1ccc2c(c1)CCc1nc(-c3ccc([N+](=O)[O-])cc3)c3c(c1-2)CCc1cc(C#N)ccc1-3`, for which the fluorescence lifetime runs as follows: (in C1CCOC1) 1.36 ns; (in CC#N) 1.11 ns; (in CCCCCC) 0.64 ns; (in CCOC(C)=O) 1.11 ns; (in CO) 0.84 ns; (in CS(C)=O) 1.24 ns. Besides, the fluorescence lifetime by setting is: (in Cc1ccccc1) 0.88 ns; (in ClCCl) 1.46 ns.

In the case of `CCCCCCCCCCCCn1nnc(-c2ccc(C#Cc3ccc(C#Cc4ccc(-c5nnn(CCCCCCCCCCCC)n5)cc4)c4nc5c6ccccc6c6ccccc6c5nc34)cc2)n1`, the fluorescence lifetime reads like this: (in C1CCOC1) 2.54 ns; (in Cc1ccccc1) 3.55 ns; (in ClCCl) 4.82 ns.

With `CCCCCCCCCCCCSc1cc2c3c(ccc4c5c(SCCCCCCCCCCCC)cc6c7c(ccc(c1c34)c75)C(=O)N(C1CCCCC1)C6=O)C(=O)N(C1CCCCC1)C2=O`, the fluorescence lifetime (in ClC(Cl)Cl) stood at 8.5 ns.

For the compound `COC(=O)/C(C#N)=c1\s/c(=c2/s/c(=C(/C#N)C(=O)OC)c3cc(-c4ccc(F)cc4)sc23)c2sc(-c3ccc(F)cc3)cc12`, the fluorescence lifetime (in Cc1ccccc1) was 2.9 ns.

For `NCCCCCCCCCCCCN1C(=O)c2ccc3c4ccc5c6c(ccc(c7ccc(c2c37)C1=O)c64)C(=O)N(CCCCCCCCCCCCN)C5=O`, for the setting “in CN(C)C=O”, the fluorescence lifetime came out at 4.1 ns.

Consider `CN(C)c1ccc(/C=C/c2cc[n+](C)cc2)cc1`, for which the fluorescence lifetime (in ClC(Cl)Cl) was 0.153 ns.

`COc1ccc2c(c1)c(C#N)cc1c(OC)c(OC)c3cc(C#N)c4cc(OC)ccc4c3c12`: under “in ClC(Cl)Cl”, the fluorescence lifetime is 6 ns.

Compound `CCN(CC)c1ccc2cc3c([o+]c2c1)/C(=C/Nc1ccccc1)CCC3` came in with a fluorescence lifetime (in CCO) of 4.05 ns, a fluorescence lifetime (in ClC(Cl)Cl) of 2.65 ns and a fluorescence lifetime (in ClCCl) of 4.97 ns.

With `CCCCCCCCCCCCN1C(=O)c2cccc3c(N(Cc4ccccn4)Cc4ccccn4)c4ccccc4c(c23)C1=O`, for the setting “in CCO”, the fluorescence lifetime worked out at 5.52 ns.

With `COc1c2ccccc2c(OC)c2c1c1ccc(C)cc1n2C`, the fluorescence lifetime runs as follows: (in C1CCCCC1) 20.6 ns; (in CC#N) 25.8 ns; (in CO) 22.9 ns; (in ClCCl) 22 ns.

On to `COc1ccc(-c2csc(/C(C#N)=C/c3ccc(C#N)cc3)n2)cc1`, for which the fluorescence lifetime (in CC#N) worked out at 1.43 ns.

Consider `COc1ccc(-c2c3ccccc3c(-c3ccc(OC)cc3)c3cc4ccccc4cc23)cc1`, for which, where the note is “in ClCCl”, the fluorescence lifetime was 12.1 ns.

`CCCCCCN1C(=O)c2cccc3c(-c4cc5ccccc5s4)ccc(c23)C1=O`: the fluorescence lifetime (in ClC(Cl)Cl) amounted to 0.86 ns.

For the compound `COc1ccc(-c2c3cc4cc(C)sc4cc3c(C#Cc3ccccc3)c3cc4cc(C)sc4cc23)cc1`, where the note is “in ClCCl”, the fluorescence lifetime turned out to be 10.8 ns.

The compound `Cc1cc(C)cc(C)c1` yielded a fluorescence lifetime (in C1CCCCC1) of 73 ns.

Under setting [1], `CC1(C)c2ccccc2N(c2ccc(-c3ncc(C#N)cn3)cc2)c2ccccc21` registered a fluorescence lifetime of 23.7 ns.

With `COc1ccc2c(c1)c1cc(OC)ccc1n2-c1cccc(-n2c3ccc(OC)cc3c3cc(OC)ccc32)c1C#N`, the fluorescence lifetime (in Cc1ccccc1) came out at 13 ns and the fluorescence lifetime under setting [2] amounted to 12.8 ns.

The compound `Cc1cc(-c2nnc(-c3ccccc3)o2)ccc1-n1c2ccccc2c2ccccc21` had a fluorescence lifetime (in CCO) of 1.82 ns.

With `CN(C)c1ccc(/C=C/C(=C(C#N)C#N)c2ccc3c4c(cccc24)CC3)cc1`, the fluorescence lifetime by setting is: (in C1CCOC1) 5.2 ns; (in CC#N) 2.25 ns; (in CC(C)=O) 3.84 ns; (in CCOC(C)=O) 4.98 ns; (in CN(C)C=O) 3.31 ns; (in CO) 2.85 ns. Moreover, the fluorescence lifetime by setting is: (in Cc1ccccc1) 3.92 ns; (in ClC(Cl)Cl) 4.27 ns.

`C=Cc1cc2ccccc2oc1=O`: the fluorescence lifetime (in CC#N) was found to be 0.39 ns.

`O=C(O)CCCCCn1c2ccc(Br)cc2c(=O)c2cc(S(=O)(=O)O)ccc21`: the fluorescence lifetime (in O) turned out to be 7.1 ns.

As for `c1ccc(-c2c3c(c(-c4ccccc4)c4cc5ccccc5cc24)Cc2c(c(-c4ccccc4)c4cc5ccccc5cc4c2-c2ccccc2)C3)cc1`, the fluorescence lifetime runs as follows: (in CC#N) 6.87 ns; (in CCCCCC) 3.8 ns; (in CO) 3.68 ns; (in Cc1ccccc1) 3.24 ns; (in ClCCl) 2.58 ns.

`c1ccc(-c2nc(-c3ccccc3)nc(-c3cc(-n4c5ccccc5c5ncccc54)c(-n4c5ccccc5c5ccccc54)c(-n4c5ccccc5c5ncccc54)c3)n2)cc1`: under setting [2], the fluorescence lifetime turned out to be 6 ns.

The compound `Cc1ccc(/C2=c3\cc/c(o3)=C(\c3ccc(C)cc3)c3ccc([nH]3)-c3ccc4n3[P-](=O)(=O)[N+]3=C(C=CC3=C4c3cccs3)c3ccc2[nH]3)cc1` registered a fluorescence lifetime (in ClC(Cl)Cl) of 4.3 ns.

As for `CC1(C)c2ccccc2N(c2ccc(-c3cnc(C#N)nc3)cc2)c2ccccc21`, the fluorescence lifetime under setting [1] amounted to 15.7 ns.

For the compound `Cc1nc2c(c[n+]1C)CN1C(=O)N([C@H]3O[C@@H](CO)[C@H](O)[C@@H]3O)C=CC1=N2`, the fluorescence lifetime reads like this: (in CC#N) 3.61 ns; (in CC(C)=O) 3.12 ns; (in CCCO) 0.39 ns; (in CCO) 0.47 ns; (in CO) 0.55 ns; (in O) 1.58 ns. In addition, the fluorescence lifetime came out at 0.58 ns (in [2H]OC), 0.5 ns (in [2H]OCC) and 1.86 ns (in [2H]O[2H]).

Under “in Cc1ccccc1”, `N#Cc1c(-n2c3ccc(Br)cc3c3cc(Br)ccc32)c(-n2c3ccc(Br)cc3c3cc(Br)ccc32)c(C#N)c(-n2c3ccc(Br)cc3c3cc(Br)ccc32)c1-n1c2ccc(Br)cc2c2cc(Br)ccc21` displayed a fluorescence lifetime of 0.3 ns.
